Here are results for three compounds from ChEMBL document CHEMBL1201862, “PubChem BioAssay data set” (2004).

The source made the active and inactive calls.

The target in assay [1] is T1, Sphingosine 1-phosphate receptor 2 (Homo sapiens, UniProt O95136). Kind of assay: Dose Response Cell Based Assay for Agonists of the S1P2 Receptor of Purchased Analogues. [Related pubchem assays: 729, 843, 854, 736 ]. The assay is classed as functional.
The next assay deals with T2, Streptokinase A (Streptococcus pyogenes serotype M1, UniProt P10520).
T2 sequence (P10520 whole entry): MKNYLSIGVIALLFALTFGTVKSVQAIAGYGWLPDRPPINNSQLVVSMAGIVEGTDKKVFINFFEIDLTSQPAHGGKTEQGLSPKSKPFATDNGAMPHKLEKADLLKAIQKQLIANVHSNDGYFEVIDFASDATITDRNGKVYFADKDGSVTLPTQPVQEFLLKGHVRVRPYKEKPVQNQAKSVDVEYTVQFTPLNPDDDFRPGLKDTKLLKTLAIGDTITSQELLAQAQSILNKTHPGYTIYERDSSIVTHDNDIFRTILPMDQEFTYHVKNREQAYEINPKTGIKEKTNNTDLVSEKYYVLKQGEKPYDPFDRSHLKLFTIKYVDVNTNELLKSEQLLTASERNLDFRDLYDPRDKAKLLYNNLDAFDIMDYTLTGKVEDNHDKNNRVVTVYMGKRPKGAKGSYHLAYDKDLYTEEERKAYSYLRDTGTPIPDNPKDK
Kind of assay: Absorbance Microorganism-Based Dose Response Follow up to Identify Inhibitors of Streptokinase Expression. [Related pubchem assays: 1677 (Project Summary), 1915, 1914, 1902 (Retest at Dose), 1900 (Counter Screen), 1662 (Primary HTS)]. The assay is classed as functional, Streptococcus pyogenes M1 GAS. (In general: The purpose of a counterscreen is to sort out artefacts and off-target activity.)

The next assay deals with Streptococcus. Briefly: Streptococcus pyogenes growth inhibition counter-screen, dose response, counter-screen for streptokinase expression inhibitor project, luminescence, BacTiter-Glo, strain UMAA2166 (AID 2477). The assay is classed as functional, organism-based.
The target in assay [2] is T1, Sphingosine 1-phosphate receptor 2. Kind of assay: Dose Response Cell Based Assay for Antagonists of the S1P2 Receptor. [Related pubchem assays: 856, 736 ]. The format is functional.
The nature of assay [3]: Luminescence Cell-Based Dose Confirmation HTS to Identify Activators of 5'UTR Stem-Loop Driven Alpha-Synuclein mRNA Translation in H4 Neuroglioblastoma Cells. [Related pubchem assays: 1829 (Project Summary), 1814 (Primary HTS)]. The format is functional.
Assay [4] in a line: Luminescence Cell-Based Dose Response HTS to Identify Activators of Luciferase Translation or Activity in H4 […] Cells. [Related pubchem assays: 1829 (Project Summary), 1814 (Primary HTS)]. The format is functional.
For assay [5], the system named is BJ. Kind of assay: cytotoxicity toward BJ-TERT fibroblasts, dose response, cell-based, RAS-independent, luminescence (AID 1933). The assay is classed as functional. The conditions noted are these: Homo sapiens.
The next assay concerns H4. Kind of assay: Luminescence Cell-Based Dose Response HTS to Identify Activators of 5'UTR Stem-Loop Driven Prion Protein mRNA Translation in H4 Neuroglioblastoma Cells. [Related pubchem assays: 1829 (Project Summary), 1814 (Primary HTS)]. The assay is classed as functional. The conditions noted are these: Homo sapiens.
In assay [6] the test system is BJ. Briefly: cells. The assay is classed as functional, cell-based. The note with it: Homo sapiens.
Assay [7] concerns the target T3, Mannose-6-phosphate isomerase (Homo sapiens, UniProt P34949).
T3 sequence (P34949 whole entry): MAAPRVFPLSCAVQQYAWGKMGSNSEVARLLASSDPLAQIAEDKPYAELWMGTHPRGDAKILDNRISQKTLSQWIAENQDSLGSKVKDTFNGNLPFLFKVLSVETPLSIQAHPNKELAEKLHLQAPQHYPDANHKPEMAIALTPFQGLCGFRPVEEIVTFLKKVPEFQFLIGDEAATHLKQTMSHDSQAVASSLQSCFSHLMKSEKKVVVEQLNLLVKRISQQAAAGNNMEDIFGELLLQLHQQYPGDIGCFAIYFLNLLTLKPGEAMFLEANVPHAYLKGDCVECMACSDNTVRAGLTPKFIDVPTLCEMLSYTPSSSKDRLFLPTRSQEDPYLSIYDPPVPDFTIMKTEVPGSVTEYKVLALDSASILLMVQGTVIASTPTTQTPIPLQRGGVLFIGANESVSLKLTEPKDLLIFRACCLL
Kind of assay: inhibitors of human PMI, primary screen, biochemical, fluorescence intensity, coupled assay (AID 1209).

Assay [8] has as its system BJ. Kind of assay: cytotoxicity toward BJ-TERT-LT-ST fibroblasts, dose response, cell-based, RAS-independent, luminescence (AID 1935).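 Further: BJ fibroblasts immortalized with TERT plus LT and ST oncogenes.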 The conditions noted are these: Homo sapiens. The format is functional.
A short description of assay [9]: cytotoxicity toward DRD oncogenic fibroblasts, dose response, cell-based, non-viral oncogenic, luminescence (AID 1934). The assay is classed as functional. The note with it: Homo sapiens.
Assay [10] is described as follows: THP-1 cell cytotoxicity, dose response, cytotoxicity control for non-replicating M. tuberculosis project (AID 489025). The format is functional.
Assay [11] is described as follows: Vero E6 cell cytotoxicity, dose response, cytotoxicity control for non-replicating M. tuberculosis project, secondary assay (AID 492998). The assay is classed as functional, VeroE6. The conditions noted are these: Vero C1008.
A further assay deals with Nonstructural protein 1 (Influenza A virus, UniProt Q194T2). The assay is classed as functional, Influenza A virus (A/California/07/2009(H1N1)).
The next assay can be described thus: cells. The format is functional.
Assay [12] has as its target T4, Replicative DNA helicase DnaB (Mycobacterium tuberculosis, UniProt P9WMR3).
T4 sequence (P9WMR3 whole entry): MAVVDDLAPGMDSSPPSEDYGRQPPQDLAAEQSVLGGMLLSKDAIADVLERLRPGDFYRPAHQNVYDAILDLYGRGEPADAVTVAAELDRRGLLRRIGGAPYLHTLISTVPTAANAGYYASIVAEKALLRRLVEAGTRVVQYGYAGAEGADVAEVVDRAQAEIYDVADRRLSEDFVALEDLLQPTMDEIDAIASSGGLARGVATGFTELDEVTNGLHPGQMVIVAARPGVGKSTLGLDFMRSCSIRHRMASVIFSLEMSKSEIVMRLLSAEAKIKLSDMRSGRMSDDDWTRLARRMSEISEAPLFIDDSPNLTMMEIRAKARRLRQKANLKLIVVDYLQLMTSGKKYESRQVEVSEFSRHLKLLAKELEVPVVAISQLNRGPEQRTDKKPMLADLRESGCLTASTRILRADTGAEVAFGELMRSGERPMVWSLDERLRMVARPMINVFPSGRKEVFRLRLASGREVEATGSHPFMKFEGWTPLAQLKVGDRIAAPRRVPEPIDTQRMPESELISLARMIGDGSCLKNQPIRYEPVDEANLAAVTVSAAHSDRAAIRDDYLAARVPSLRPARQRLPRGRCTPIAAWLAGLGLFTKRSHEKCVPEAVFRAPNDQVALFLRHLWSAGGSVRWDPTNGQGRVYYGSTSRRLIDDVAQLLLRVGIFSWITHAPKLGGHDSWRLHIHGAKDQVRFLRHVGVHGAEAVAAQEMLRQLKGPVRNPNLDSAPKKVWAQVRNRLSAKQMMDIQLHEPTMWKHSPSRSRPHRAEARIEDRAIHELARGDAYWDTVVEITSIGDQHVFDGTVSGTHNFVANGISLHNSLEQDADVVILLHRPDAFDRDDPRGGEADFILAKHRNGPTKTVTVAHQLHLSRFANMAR
Briefly: DnaB intein splicing inhibitors, dose response, biochemical, cell-free fluorescence (AID 449749). The format is functional.

The subject of assay [13] is BJ. Briefly: cytotoxicity toward Ras-transformed BJeLR fibroblasts, dose response, cell-based, alamar blue fluorescence, cherrypicked samples (AID 2631).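 Further: confirmatory dose-response assay in RAS-dependent BJ fibroblasts engineered with TERT, LT and ST, with cytotoxicity read by fluorescence.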 The assay is classed as functional. The note with it: Homo sapiens. For orientation: Alamar Blue is a resazurin reagent that responds to reducing activity.
In the next assay the target is T5, Protein RecA (Mycobacterium tuberculosis, UniProt P9WHJ3).
T5 sequence (P9WHJ3 whole entry): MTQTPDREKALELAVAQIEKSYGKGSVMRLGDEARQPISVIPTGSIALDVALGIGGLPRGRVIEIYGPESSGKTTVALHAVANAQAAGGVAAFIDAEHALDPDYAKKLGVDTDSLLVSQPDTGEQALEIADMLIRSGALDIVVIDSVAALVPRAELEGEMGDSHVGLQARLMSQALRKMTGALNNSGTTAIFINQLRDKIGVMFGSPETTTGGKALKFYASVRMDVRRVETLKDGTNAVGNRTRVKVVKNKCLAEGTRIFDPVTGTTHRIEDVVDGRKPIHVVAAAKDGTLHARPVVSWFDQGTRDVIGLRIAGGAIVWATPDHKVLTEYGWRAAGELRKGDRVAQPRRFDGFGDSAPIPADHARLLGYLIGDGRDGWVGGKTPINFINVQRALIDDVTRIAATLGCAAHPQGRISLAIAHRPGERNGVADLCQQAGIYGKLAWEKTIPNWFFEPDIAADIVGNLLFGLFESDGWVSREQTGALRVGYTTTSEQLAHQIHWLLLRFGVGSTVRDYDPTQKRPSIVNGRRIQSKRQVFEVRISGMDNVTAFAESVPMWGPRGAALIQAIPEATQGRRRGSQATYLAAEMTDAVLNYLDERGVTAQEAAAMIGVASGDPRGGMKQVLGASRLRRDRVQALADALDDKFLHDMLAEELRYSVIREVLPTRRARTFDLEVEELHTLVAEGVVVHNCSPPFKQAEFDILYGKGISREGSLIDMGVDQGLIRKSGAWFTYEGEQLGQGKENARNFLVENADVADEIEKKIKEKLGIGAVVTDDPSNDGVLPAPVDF
Briefly: Fluorescence Cell-Free Homogeneous Dose Retest to Identify Inhibitors of RecA-Intein Splicing Activity. [Related pubchem assays (depositor defined):AID2097, AID2223, AID489010, AID492950]. The assay is classed as functional.

A further assay relates to INS1. Briefly: beta cell apoptosis inhibitors, cytokine rescue, dose response, luminescence, retest (AID 449756).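 Further: cell death triggered by IL-1 beta plus TNF-alpha plus IFN-gamma mixture; protective hits raise ATP signal compared with cytokine alone wells.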 The conditions noted are these: Rattus norvegicus. The assay is classed as functional, cell-based.

One may read the EC50 as the concentration at which the effect is half-maximal. What is called IC50 is the midpoint of a concentration-inhibition curve. Usually CC50 stands for the concentration at which the toxic effect on the cells reaches its halfway point. A word on the AC50: it is the concentration giving half of the maximal activity seen.

T1 sequence (O95136 whole entry): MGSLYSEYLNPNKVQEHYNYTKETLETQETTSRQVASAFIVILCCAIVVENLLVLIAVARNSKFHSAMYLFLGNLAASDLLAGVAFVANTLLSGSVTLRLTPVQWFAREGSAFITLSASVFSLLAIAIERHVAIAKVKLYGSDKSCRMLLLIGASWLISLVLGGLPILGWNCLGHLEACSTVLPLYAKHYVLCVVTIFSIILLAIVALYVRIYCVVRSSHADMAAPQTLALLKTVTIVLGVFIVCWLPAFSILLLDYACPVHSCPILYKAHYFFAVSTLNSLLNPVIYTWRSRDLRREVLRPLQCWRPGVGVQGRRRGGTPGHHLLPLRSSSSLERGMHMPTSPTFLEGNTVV
Nonstructural protein 1, sequence (Q194T2 whole entry): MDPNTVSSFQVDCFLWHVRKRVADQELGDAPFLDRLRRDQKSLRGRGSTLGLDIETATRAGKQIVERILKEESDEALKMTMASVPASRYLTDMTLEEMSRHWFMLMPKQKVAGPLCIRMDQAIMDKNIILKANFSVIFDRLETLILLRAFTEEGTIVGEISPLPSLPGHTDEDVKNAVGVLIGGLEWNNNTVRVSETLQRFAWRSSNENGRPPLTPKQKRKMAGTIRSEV

Take `Cc1cc(C(=O)CN(C)CC(=O)N(C)C)c(C)n1Cc1ccccc1`: in assay [1], the EC50 was > 30 µM (not active).

For the compound `COc1cccc(-c2nc(OC(C)C)c3ccccc3n2)c1`, the values for the EC50 at Streptokinase A and with Streptococcus were 8.2 µM (active) and 68.7 µM (active), respectively.

`CC1=C(C)/C(=N\OS(=O)(=O)c2ccccc2)C=CC1=O`: the IC50 in assay [2] was 4.33 µM (active); in [7] it was 6.61 µM (active); on Nonstructural protein 1 it was > 100 µM (active); in the assay “cells” it was 11.4 µM (active). Also, the EC50 in assay [3] was > 120 µM (not active); in assay [4], > 120 µM (not active); in the assay on BJ [5] it was 2.78 µM (inconclusive); in the assay with H4, > 120 µM (not active); with BJ [6] it was 2.92 µM (active); in the assay on BJ [8] it was 4.32 µM (inconclusive). Moreover, the EC50 is 4.57 µM (active) in assay [9], 0.557 µM (inconclusive) with BJ [13] and 7.72 µM (active) at Protein RecA. Also, the 50% cytotoxic concentration (CC50) was 12.1 µM (active) in [10] and > 20 µM (active) in [11]. Besides, the AC50 was 87.4 µM (active) in [12] and 1.92 µM (active) in the assay on INS1.
